Columns and labels:
Penicillium decumbens = assay: Inhibition of Penicillium decumbens alpha-L-rhamnosidase using p-nitrophenyl glycoside as substrate assessed as release of p-nitrophenol at 1000 uM measured by spectrometric assay relative to control
[1] = Inhibition of bovine liver beta-galactosidase using p-nitrophenyl glycoside as substrate assessed as release of p-nitrophenol measured by spectrometric assay; format: tissue-based, Bos taurus
Sus scrofa = species: Sus scrofa; assay: Inhibition of porcine kidney alpha-trehalase using p-nitrophenyl glycoside as substrate assessed as release of p-nitrophenol at 1000 uM measured by spectrometric assay relative to control
[2] = Inhibition of rice alpha-glucosidase using p-nitrophenyl glycoside as substrate assessed as release of p-nitrophenol measured by spectrometric assay; design: species or system Oryza sativa; conditions: read-out: IC50
[3] = Inhibition of bovine liver beta-glucosidase using p-nitrophenyl glycoside as substrate assessed as release of p-nitrophenol measured by spectrometric assay; design: species or system Bos taurus
[4] = Inhibition of Aspergillus niger amyloglucosidase using p-nitrophenyl glycoside as substrate assessed as release of p-nitrophenol measured by spectrometric assay
[5] = molecular target: T1, Tissue alpha-L-fucosidase (Bos taurus, UniProt Q2KIM0); assay: Inhibition of bovine kidney alpha-L-fucosidase using p-nitrophenyl glycoside as substrate assessed as release of p-nitrophenol measured by spectrometric assay
T1 sequence (Q2KIM0 whole entry): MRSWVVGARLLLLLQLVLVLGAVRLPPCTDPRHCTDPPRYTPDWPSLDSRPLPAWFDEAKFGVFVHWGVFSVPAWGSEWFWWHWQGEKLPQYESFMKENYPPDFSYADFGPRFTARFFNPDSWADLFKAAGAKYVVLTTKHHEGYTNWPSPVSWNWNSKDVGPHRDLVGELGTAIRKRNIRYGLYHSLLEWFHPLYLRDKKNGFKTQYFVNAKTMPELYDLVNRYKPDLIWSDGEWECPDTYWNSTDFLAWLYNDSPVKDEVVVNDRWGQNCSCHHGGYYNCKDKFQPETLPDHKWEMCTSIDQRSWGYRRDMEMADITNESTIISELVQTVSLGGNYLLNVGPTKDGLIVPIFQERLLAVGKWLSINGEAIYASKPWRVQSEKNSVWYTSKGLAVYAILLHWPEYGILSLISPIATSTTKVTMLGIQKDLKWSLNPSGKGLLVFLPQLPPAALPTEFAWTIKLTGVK

[6] = Inhibition of jack bean alpha-mannosidase using p-nitrophenyl glycoside as substrate assessed as release of p-nitrophenol measured by spectrometric assay; design: species or system Canavalia ensiformis
[7] = molecular target: T2, Tissue alpha-L-fucosidase (Bos taurus) (UniProt Q2KIM0); assay: Inhibition of bovine kidney alpha-L-fucosidase using p-nitrophenyl glycoside as substrate assessed as release of p-nitrophenol at 1000 uM measured by spectrometric assay relative to control; format: tissue-based
T2 sequence (whole entry): T1 sequence (Q2KIM0 whole entry)

Helix pomatia = assay: Inhibition of snail beta-mannosidase using p-nitrophenyl glycoside as substrate assessed as release of p-nitrophenol at 1000 uM measured by spectrometric assay relative to control
Aspergillus niger = assay: Inhibition of Aspergillus niger amyloglucosidase using p-nitrophenyl glycoside as substrate assessed as release of p-nitrophenol at 1000 uM measured by spectrometric assay relative to control
Beta-glucuronidase = Beta-glucuronidase (Escherichia coli (strain K12), UniProt P05804); assay: Inhibition of Escherichia coli beta-glucuronidase using p-nitrophenyl glycoside as substrate assessed as release of p-nitrophenol measured by spectrometric assay
Sequence of Beta-glucuronidase (P05804 whole entry): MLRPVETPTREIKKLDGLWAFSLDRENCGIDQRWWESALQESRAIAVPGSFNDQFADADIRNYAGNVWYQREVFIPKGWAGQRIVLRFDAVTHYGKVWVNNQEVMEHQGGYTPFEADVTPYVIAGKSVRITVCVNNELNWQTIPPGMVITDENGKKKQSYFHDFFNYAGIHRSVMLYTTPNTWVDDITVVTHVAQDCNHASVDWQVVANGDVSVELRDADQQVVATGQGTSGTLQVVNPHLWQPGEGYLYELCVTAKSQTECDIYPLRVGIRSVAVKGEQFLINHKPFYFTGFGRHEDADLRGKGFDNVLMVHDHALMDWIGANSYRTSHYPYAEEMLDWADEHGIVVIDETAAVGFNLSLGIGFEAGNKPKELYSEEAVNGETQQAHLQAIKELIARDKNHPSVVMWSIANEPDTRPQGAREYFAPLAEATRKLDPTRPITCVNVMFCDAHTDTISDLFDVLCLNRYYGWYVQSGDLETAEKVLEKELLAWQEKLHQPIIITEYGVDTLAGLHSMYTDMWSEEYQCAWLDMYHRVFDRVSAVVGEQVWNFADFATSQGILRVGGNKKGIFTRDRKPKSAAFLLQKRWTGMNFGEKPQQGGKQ

[8] = Inhibition of snail beta-mannosidase using p-nitrophenyl glycoside as substrate assessed as release of p-nitrophenol measured by spectrometric assay; design: species or system Helix pomatia
Bos taurus [9] = species: Bos taurus; assay: Inhibition of bovine liver beta-glucosidase using p-nitrophenyl glycoside as substrate assessed as release of p-nitrophenol at 1000 uM measured by spectrometric assay relative to control; format: tissue-based
[10] = Inhibition of rat intestinal maltase using maltose as substrate assessed as release of D-glucose measured by spectrometric assay
Prunus dulcis = assay: Inhibition of almond beta-glucosidase using p-nitrophenyl glycoside as substrate assessed as release of p-nitrophenol at 1000 uM measured by spectrometric assay relative to control
[11] = molecular target: Beta-glucuronidase (Escherichia coli (strain K12)) (UniProt P05804); assay: Inhibition of Escherichia coli beta-glucuronidase using p-nitrophenyl glycoside as substrate assessed as release of p-nitrophenol at 1000 uM measured by spectrometric assay relative to control
Sequence of Beta-glucuronidase (Escherichia coli (strain K12)) (P05804 whole entry, looked up): as the sequence (P05804 whole entry) above

[12] = Inhibition of almond beta-glucosidase using p-nitrophenyl glycoside as substrate assessed as release of p-nitrophenol measured by spectrometric assay; design: species or system Prunus dulcis
[13] = molecular target: T3, Sucrase-isomaltase, intestinal (Rattus norvegicus, UniProt P23739); assay: Inhibition of rat intestinal sucrase using p-nitrophenyl glycoside as substrate assessed as release of p-nitrophenol measured by spectrometric assay
T3 sequence (P23739 1-1013 limits assumed): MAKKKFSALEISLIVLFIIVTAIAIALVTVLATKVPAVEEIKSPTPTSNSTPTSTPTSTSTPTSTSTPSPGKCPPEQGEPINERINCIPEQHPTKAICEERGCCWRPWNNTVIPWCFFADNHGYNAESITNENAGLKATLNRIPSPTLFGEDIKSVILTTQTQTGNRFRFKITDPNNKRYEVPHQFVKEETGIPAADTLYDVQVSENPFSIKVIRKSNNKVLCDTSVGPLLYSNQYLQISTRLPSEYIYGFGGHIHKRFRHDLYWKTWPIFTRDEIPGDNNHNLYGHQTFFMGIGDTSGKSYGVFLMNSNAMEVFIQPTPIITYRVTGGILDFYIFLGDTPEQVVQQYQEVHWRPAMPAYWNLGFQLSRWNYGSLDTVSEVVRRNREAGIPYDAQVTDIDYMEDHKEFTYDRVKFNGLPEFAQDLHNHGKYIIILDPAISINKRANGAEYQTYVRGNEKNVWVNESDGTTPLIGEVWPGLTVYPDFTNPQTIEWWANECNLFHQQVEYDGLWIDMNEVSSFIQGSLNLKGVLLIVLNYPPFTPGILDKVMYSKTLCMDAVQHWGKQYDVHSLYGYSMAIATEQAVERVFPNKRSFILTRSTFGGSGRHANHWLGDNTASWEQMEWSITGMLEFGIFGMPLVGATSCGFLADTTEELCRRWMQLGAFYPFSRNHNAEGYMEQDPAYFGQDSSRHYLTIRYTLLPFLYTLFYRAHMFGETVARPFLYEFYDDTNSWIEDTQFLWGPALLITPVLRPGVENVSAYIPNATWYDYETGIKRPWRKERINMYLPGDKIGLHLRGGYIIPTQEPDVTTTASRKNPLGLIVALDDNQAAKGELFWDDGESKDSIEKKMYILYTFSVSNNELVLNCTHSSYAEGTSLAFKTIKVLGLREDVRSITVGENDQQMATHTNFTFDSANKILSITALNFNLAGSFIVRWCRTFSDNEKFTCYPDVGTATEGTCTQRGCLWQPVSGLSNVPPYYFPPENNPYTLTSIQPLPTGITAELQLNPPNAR
T3 sequence (P23739 1014-1841 limits assumed): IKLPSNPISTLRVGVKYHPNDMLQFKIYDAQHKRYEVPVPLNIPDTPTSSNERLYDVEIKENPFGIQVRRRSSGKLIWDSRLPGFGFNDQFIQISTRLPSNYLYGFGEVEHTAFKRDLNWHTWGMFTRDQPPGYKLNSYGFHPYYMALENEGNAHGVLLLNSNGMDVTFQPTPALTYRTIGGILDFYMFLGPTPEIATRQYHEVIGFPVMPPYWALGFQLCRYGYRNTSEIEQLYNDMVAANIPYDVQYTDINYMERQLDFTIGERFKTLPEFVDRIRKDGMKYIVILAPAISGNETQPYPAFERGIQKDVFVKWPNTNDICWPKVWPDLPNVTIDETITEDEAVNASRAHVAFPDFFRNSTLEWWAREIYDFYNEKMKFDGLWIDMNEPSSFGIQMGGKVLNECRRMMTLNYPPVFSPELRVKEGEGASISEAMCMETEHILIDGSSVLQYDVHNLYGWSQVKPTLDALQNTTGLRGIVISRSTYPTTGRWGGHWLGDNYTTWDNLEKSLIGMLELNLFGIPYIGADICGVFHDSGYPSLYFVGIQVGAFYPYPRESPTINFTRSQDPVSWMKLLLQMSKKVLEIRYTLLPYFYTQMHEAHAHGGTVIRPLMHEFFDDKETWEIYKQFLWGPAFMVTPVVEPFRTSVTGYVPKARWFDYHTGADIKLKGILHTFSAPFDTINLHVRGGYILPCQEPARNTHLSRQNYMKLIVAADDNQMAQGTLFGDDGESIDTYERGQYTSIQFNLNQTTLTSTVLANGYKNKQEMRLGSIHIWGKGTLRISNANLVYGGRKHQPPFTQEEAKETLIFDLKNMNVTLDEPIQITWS

[14] = molecular target: T4, Alpha-mannosidase (Canavalia ensiformis) (UniProt C0HJB3); assay: Inhibition of jack bean alpha-mannosidase using p-nitrophenyl glycoside as substrate assessed as release of p-nitrophenol at 1000 uM measured by spectrometric assay relative to control
T4 sequence (whole entry): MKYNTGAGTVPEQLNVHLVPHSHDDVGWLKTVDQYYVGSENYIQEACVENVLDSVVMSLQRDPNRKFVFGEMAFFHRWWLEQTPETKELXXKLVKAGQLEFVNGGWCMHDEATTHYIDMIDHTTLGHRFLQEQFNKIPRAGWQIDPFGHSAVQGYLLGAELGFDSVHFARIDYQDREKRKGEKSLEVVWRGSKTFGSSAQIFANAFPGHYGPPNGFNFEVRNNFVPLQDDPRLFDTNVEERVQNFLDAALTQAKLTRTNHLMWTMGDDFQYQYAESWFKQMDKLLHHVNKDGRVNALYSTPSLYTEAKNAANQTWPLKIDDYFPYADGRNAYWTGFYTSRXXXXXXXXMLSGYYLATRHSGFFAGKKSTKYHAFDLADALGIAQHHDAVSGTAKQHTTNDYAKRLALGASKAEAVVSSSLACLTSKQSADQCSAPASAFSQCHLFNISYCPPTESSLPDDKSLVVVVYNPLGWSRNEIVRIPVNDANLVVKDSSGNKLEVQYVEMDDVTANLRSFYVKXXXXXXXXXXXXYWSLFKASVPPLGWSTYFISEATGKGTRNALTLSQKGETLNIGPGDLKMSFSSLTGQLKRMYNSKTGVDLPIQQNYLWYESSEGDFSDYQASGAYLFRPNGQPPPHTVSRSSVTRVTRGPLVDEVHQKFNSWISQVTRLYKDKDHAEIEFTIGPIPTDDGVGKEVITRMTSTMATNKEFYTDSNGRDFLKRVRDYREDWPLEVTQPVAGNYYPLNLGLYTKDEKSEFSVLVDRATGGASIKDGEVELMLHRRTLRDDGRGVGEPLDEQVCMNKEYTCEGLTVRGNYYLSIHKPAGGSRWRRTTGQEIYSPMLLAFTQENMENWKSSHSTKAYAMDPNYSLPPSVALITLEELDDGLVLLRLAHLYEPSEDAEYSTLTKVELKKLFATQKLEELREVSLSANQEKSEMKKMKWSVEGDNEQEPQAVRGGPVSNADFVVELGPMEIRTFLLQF

[15] = molecular target: T3, Sucrase-isomaltase, intestinal; assay: Inhibition of rat intestinal isomaltase using p-nitrophenyl glycoside as substrate assessed as release of p-nitrophenol measured by spectrometric assay
Bos taurus [16] = species: Bos taurus; assay: Inhibition of bovine liver beta-galactosidase using p-nitrophenyl glycoside as substrate assessed as release of p-nitrophenol at 1000 uM measured by spectrometric assay relative to control
[17] = Inhibition of porcine kidney alpha-trehalase using p-nitrophenyl glycoside as substrate assessed as release of p-nitrophenol measured by spectrometric assay; design: species or system Sus scrofa
Alpha-galactosidase = Alpha-galactosidase (Coffea arabica, UniProt Q42656); assay: Inhibition of coffee beans alpha-galactosidase using p-nitrophenyl glycoside as substrate assessed as release of p-nitrophenol measured by spectrometric assay
Sequence of Alpha-galactosidase (Q42656 whole entry): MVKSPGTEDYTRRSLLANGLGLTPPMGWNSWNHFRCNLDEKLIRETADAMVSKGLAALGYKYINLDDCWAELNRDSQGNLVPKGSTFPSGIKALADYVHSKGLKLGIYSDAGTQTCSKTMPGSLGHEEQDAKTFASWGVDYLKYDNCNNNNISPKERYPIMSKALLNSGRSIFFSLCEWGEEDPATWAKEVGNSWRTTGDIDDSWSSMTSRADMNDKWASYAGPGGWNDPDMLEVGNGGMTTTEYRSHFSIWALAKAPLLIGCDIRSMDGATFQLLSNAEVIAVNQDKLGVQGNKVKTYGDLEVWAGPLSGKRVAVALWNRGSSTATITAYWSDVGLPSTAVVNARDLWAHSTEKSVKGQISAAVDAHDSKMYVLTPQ

[18] = molecular target: Alpha-galactosidase (Coffea arabica) (UniProt Q42656); assay: Inhibition of coffee beans alpha-galactosidase using p-nitrophenyl glycoside as substrate assessed as release of p-nitrophenol at 1000 uM measured by spectrometric assay relative to control
Sequence of Alpha-galactosidase (Coffea arabica) (Q42656 16-378 limits assumed): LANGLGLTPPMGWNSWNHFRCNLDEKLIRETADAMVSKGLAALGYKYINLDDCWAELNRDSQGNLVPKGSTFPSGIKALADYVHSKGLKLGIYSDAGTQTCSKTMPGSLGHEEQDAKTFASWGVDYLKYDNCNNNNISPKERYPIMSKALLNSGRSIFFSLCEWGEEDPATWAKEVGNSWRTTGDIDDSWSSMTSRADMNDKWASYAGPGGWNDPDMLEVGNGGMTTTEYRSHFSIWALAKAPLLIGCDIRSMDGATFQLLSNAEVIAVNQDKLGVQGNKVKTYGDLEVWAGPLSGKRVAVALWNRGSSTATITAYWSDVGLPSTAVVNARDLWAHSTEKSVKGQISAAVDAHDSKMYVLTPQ

[19] = Inhibition of Penicillium decumbens alpha-L-rhamnosidase using p-nitrophenyl glycoside as substrate assessed as release of p-nitrophenol measured by spectrometric assay
Rattus norvegicus = species: Rattus norvegicus; assay: Inhibition of rat intestinal maltase using maltose as substrate assessed as release of D-glucose at 1000 uM measured by spectrometric assay

## CCCCCCC[C@@]1(CO)NC[C@H](O)[C@@H](O)[C@@H]1O.Cl
Penicillium decumbens
  inhibition: 0%
[1]
  IC50: Not Active
Sus scrofa
  inhibition: 4.2%
[2]
  IC50: 9.9 µM
[3]
  IC50: Not Active
[4]
  IC50: Not Active
[5]
  IC50: Not Active
[6]
  IC50: Not Active
[7]
  inhibition: 0%
Helix pomatia
  inhibition: 0%
Aspergillus niger
  inhibition: 11.9%
Beta-glucuronidase
  IC50: Not Active
[8]
  IC50: Not Active
Bos taurus [9]
  inhibition: 16.5%
[10]
  IC50: 19 µM
Prunus dulcis
  inhibition: 6.9%
[11]
  inhibition: 2.5%
[12]
  IC50: Not Active
[13]; read-out: IC50
  IC50: 89 µM
[14]
  inhibition: 2.4%
[15]
  IC50: Not Active
Bos taurus [16]
  inhibition: 28.4%
[17]
  IC50: Not Active
Alpha-galactosidase
  IC50: Not Active
[18]
  inhibition: 8%
[19]
  IC50: Not Active

## CCCCCCCCCC[C@@]1(CO)NC[C@H](O)[C@@H](O)[C@@H]1O.Cl
Penicillium decumbens
  inhibition: 0%
[1]; read-out: IC50
  IC50: 43 µM
Sus scrofa
  inhibition: 3%
[2]
  IC50: 159 µM
Rattus norvegicus
  inhibition: 0%
[3]; read-out: IC50
  IC50: 83 µM
[4]
  IC50: Not Active
[5]
  IC50: Not Active
[6]
  IC50: Not Active
[7]
  inhibition: 0%
Helix pomatia
  inhibition: 0%
Aspergillus niger
  inhibition: 10.5%
Beta-glucuronidase
  IC50: Not Active
[8]
  IC50: Not Active
[10]
  IC50: 263 µM
Prunus dulcis
  inhibition: 8.8%
[11]
  inhibition: 3.2%
[12]
  IC50: Not Active
[13]
  IC50: Not Active
[14]
  inhibition: 4.7%
[15]
  IC50: Not Active
[17]
  IC50: Not Active
Alpha-galactosidase
  IC50: Not Active
[18]
  inhibition: 2.1%
[19]
  IC50: Not Active

## C[C@@]1(CO)NC[C@H](O)[C@@H](O)[C@@H]1O.Cl
Penicillium decumbens
  inhibition: 0%
[1]
  IC50: Not Active
Sus scrofa
  inhibition: 7.5%
[2]
  IC50: 38 µM
[3]
  IC50: Not Active
[4]
  IC50: Not Active
[5]
  IC50: Not Active
[6]
  IC50: Not Active
[7]
  inhibition: 13.8%
Helix pomatia
  inhibition: 2%
Aspergillus niger
  inhibition: 2.7%
Beta-glucuronidase
  IC50: Not Active
[8]
  IC50: Not Active
Bos taurus [9]
  inhibition: 3.6%
[10]
  IC50: 22 µM
Prunus dulcis
  inhibition: 9.5%
[11]
  inhibition: 17.7%
[12]
  IC50: Not Active
[13]; read-out: IC50
  IC50: 25 µM
[14]
  inhibition: 9.6%
[15]
  IC50: Not Active
Bos taurus [16]
  inhibition: 14.1%
[17]
  IC50: Not Active
Alpha-galactosidase
  IC50: Not Active
[18]
  inhibition: 9.3%
[19]
  IC50: Not Active

## CC[C@@]1(CO)NC[C@H](O)[C@@H](O)[C@@H]1O.Cl
Penicillium decumbens
  inhibition: 0%
[1]
  IC50: Not Active
Sus scrofa
  inhibition: 1.5%
[2]
  IC50: 14 µM
[3]
  IC50: Not Active
[4]
  IC50: Not Active
[5]
  IC50: Not Active
[6]
  IC50: Not Active
[7]
  inhibition: 2.1%
Helix pomatia
  inhibition: 1.1%
Aspergillus niger
  inhibition: 0%
Beta-glucuronidase
  IC50: Not Active
[8]
  IC50: Not Active
Bos taurus [9]
  inhibition: 9.2%
[10]
  IC50: 6.6 µM
Prunus dulcis
  inhibition: 6.2%
[11]
  inhibition: 0.4%
[12]
  IC50: Not Active
[13]; read-out: IC50
  IC50: 8.8 µM
[14]
  inhibition: 2.4%
[15]; read-out: IC50
  IC50: 50 µM
Bos taurus [16]
  inhibition: 18.4%
[17]
  IC50: Not Active
Alpha-galactosidase
  IC50: Not Active
[18]
  inhibition: 3.5%
[19]
  IC50: Not Active

Source: ChEMBL document CHEMBL4828725 (Eur J Med Chem, 2021)
